Measured values from patent US20240156742A1, “TARGETED MULTIFUNCTIONAL NANOSTRUCTURED LIPID CARRIERS” (TECHNION RESEARCH & DEVELOPMENT FOUNDATION LIMITED, priority 2021, published 2024).

What was measured:
[1] = system: PC-3 non-target cells (PSMA-negative PC cell line); test: XTT growth inhibition assay, PC-3; format: cell-based; settings: Homo sapiens; free drug in growth medium for 72 hr
Method: (§1) The selective growth inhibition of CTX-loaded NPs was studied in LNCaP target cells and PC-3 non-target cells, using an XTT-based colorimetric cell proliferation kit as previously described. The preparation of CTX-loaded NPs was performed as described and had undergone 24 hr dialysis before cell exposure, to simulate the conditions in the human body. The dialysis was conducted as described in the “Kinetic profile of in vitro drug release” in the materials and methods section, but with the use of 10% FBS to capture the released CTX. Prior to the experiment, 96-well plates were coated with poly-L-Lysine before cell plating. LNCaP and PC-3 cells were seeded in 96-well plates at 5×10^4 and 2.5×10^4 cells/ml, respectively, and incubated overnight to allow for cell attachment. Following exposure of cells to CTX-loaded NPs at increasing CTX concentrations of 0.001-100 nM for 24 hr, cells were incubated for additional 72 hr with fresh growth medium. Cellular growth inhibition was determined by adding the XTT reagent. Data were plotted using a nonlinear curve fitting of a sigmoidal model (Hill1) with OriginPro 9.0 to obtain a dose-response curve according to Equation (3): […]

[2] = Kinetic profile of in vitro drug release by dialysis; format: physicochemical; settings: dialysis in PBS pH 7.4 with 0.1% Tween 80, 37° C., 72 hr; burst within first 10 hr
Method: The kinetics of in vitro release of drugs from the loaded NPs and free drugs were studied by the dialysis method. One (1) ml of drug-loaded NPs or free drugs (both systems in DW) were placed in dialysis bags (molecular weight cutoff of 3.5 kDa, Sigma-Aldrich, Merck, Rehovot, Israel) and incubated in 30 ml volume of plasma simulating buffer comprising phosphate-buffered saline (PBS, 10 mM, pH 7.4) containing 0.1% tween 80 for 72 hr, at 37° C., with continuous gentle agitation. At defined time intervals (0, 2, 4, 6, 10, 23, 29, 36, 47, 58, 72 hr), the dialysate was collected and replaced by the same volume of fresh release buffer. To calculate the cumulative release of drugs, the dialysates from each time point were freeze-dried, dissolved in EtOH or DMSO for CTX or ENZ extraction, respectively, filtered through 0.45 μm membrane, and quantified using RP-HPLC, as described above. The results are presented as means of two experiments±SE.
The kinetics of in vitro release of CTX and ENZ from NPs were assessed by dialysis in a large volume of a plasma-simulating buffer for 72 hr at 37° C., with continuous mixing. […] At defined time intervals, the dialysate was replaced with a fresh buffer, and the drug was quantified using RP-HPLC. […]

LNCaP cells = settings: exposure for 48 hr; cited from earlier work
[3] = system: LNCaP target cells (PSMA-positive PC cell line); test: XTT growth inhibition assay, LNCaP; format: cell-based; settings: Homo sapiens, free drug in growth medium for 72 hr
Method: as §1

Row | IC50 [1] | in vitro release profile [2] | IC50 [3] | SMILES | IC50 (LNCaP cells)
1 | 0.18 ± 0.04 nM | burst release | 0.25 ± 0.04 nM | CO[C@H]1C(=O)[C@]2(C)[C@@H](OC)C[C@H]3OC[C@@]3(OC(C)=O)[C@H]2[C@H](OC(=O)c2ccccc2)[C@]2(O)C[C@H](OC(=O)[C@H](O)[C@@H](NC(=O)OC(C)(C)C)c3ccccc3)C(C)=C1C2(C)C [free CTX, Cabazitaxel] | 2.6 to 3.1 nM
2 |  | burst release |  | CNC(=O)c1ccc(N2C(=S)N(c3ccc(C#N)c(C(F)(F)F)c3)C(=O)C2(C)C)cc1F [unencapsulated ENZ, Enzalutamide] | 
